As a reminder, the pIC50 is the negative decadic logarithm of the IC50, by convention in mol/L.

Assay [1] deals with human multiple myeloma cell line, OPM-2. Briefly: Cell viability assay (OPM-2 10 FBS), CellTiter-Glo. The class given is cell-based. A digest of the protocol:
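Cells were seeded at 3000 cells/well in RPMI 1640 with 10% FBS and exposed to serially diluted compounds for 16 h at 37 °C, 5% CO2.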
(In general: Cellular ATP, detected with luciferase, serves as a proxy for viable cell number.)

In assay [2] the target is recombinant human Mcl-1 (residues 171-327) / Bim interaction (Homo sapiens (Human), UniProt Q07820). Briefly: biochemical. It is filed as binding. To be noted: read-out: Mcl-1 HTRF IC50. (In TR-FRET formats the signal depends on donor and acceptor labels being close together.)
Sequence of recombinant human Mcl-1 (residues 171-327) / Bim interaction (Q07820 171-327): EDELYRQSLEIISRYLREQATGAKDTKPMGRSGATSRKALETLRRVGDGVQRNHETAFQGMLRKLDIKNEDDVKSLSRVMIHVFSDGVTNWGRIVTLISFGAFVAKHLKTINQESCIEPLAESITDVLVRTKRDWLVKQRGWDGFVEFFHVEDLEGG
The mark [3] stands for this setting: read-out: OPM-2 10% FBS IC50 IP, OPM-2 cells, 10% FBS, 16 h, CellTiter-Glo.
The mark [4] stands for this setting: TR-FRET, Mcl-1(171-327) / biotin-Bim (51-76).
[5] abbreviates: Homo sapiens, OPM-2, 16 h, read-out: OPM-2 10% FBS IC50 IP, OPM-2 cells, 10% FBS, 16 h, CellTiter-Glo.
Where [6] appears, read: Homo sapiens, OPM-2, 16 h, read-out: OPM-2 10% FBS IC50 IP, OPM-2 cells, 10% FBS, 16 h incubation.
The mark [7] stands for this setting: 0.1 nM Mcl-1(171-327), 0.05 nM biotin-Bim (51-76).

pIC50: −log10 of the molar value. Read-outs that look alike come from different tables or passages of the source.

As for `C[C@@H]1[C@@H](C)CCC[C@@]2(C[C@H]2C(=O)N2CCN3CCOC[C@H]3C2)[C@@H]2CC[C@H]2CN2C[C@@]3(CCCc4cc(Cl)ccc43)COc3ccc(cc32)C(=O)NS1(=O)=O` [Example 100304, (1R,2R,3′R,6′R,11′S,12′R,22′S)-6″-chloro-2-((9aR)-hexahydropyrazino[2,1-c][1,4]oxazin-8(1H)-ylcarbonyl)-11′,12′-dimethyl-3″,4″-dihydro-2″H,15′H-dispiro[cyclopropane-1,7′-[20]oxa[13]thia[1,14]diazatetracyclo [14.7.2.0~3,6~.0~19,24~]pentacosa[16,18,24]triene-22′,1″-naphthalen]-15′-one 13′,13′-dioxide], the pIC50 in assay [1] (setting [3]) is 6.33; in assay [2] (setting [4]), 9.51.

For the compound `C[C@@H]1[C@@H](C)C/C=C/[C@@](O)(CC(=O)N2CCCCC2)[C@@H]2CC[C@H]2CN2C[C@@]3(CCCc4cc(Cl)ccc43)COc3ccc(cc32)C(=O)NS1(=O)=O` [Example 100258, (1S,3′R,6′R,7′S,8′E,11′S,12′R)-6-chloro-7′-hydroxy-11′,12′-dimethyl-7′-(2-oxo-2-(1-piperidinyl)ethyl)-3,4-dihydro-2H,15′H-spiro[naphthalene-1,22′-[20]oxa[13]thia[1,14]diazatetracyclo [14.7.2.0~3,6~.0~19,24~]pentacosa[8,16,18,24]tetraen]-15′-one 13′,13′-dioxide], the pIC50 in assay [1] (setting [3]) was 6.28; in assay [2] (setting [4]), 9.26.

On to `Cc1ncc([C@]2(O)/C=C/C[C@H](C)[C@@H](C)S(=O)(=O)NC(=O)c3ccc4c(c3)N(C[C@@H]3CC[C@H]32)C[C@@]2(CCCc3cc(Cl)ccc32)CO4)n1C` (single isomer, unassigned) [Example 100559], for which the pIC50 in assay [1] (setting [5]) is 5.99; in assay [2] (setting [4]) it was 9.95.

On to `C[C@@H]1[C@@H](C)CCC[C@@](O)(CCN2CCOCC2)[C@@H]2CC[C@H]2CN2C[C@@]3(CCCc4cc(Cl)ccc43)COc3ccc(cc32)C(=O)NS1(=O)=O` [Example 100096, (1S,3′R,6′R,7′R,11′S,12′R)-6-chloro-7′-hydroxy-11′,12′-dimethyl-7′-(2-(4-morpholinyl)ethyl)-3,4-dihydro-2H,15′H-spiro[naphthalene-1,22′-[20]oxa[13]thia[1,14]diazatetracyclo [14.7.2.0~3,6~.0~19,24~]pentacosa[16,18,24]trien]-15′-one 13′,13′-dioxide], for which the pIC50 in assay [1] (setting [3]) was 6.29; in assay [2] (setting [4]) it was 9.20.

On to `C[C@@H]1[C@@H](C)C/C=C/[C@@](O)(C#CCCc2ccccn2)[C@@H]2CC[C@H]2CN2C[C@@]3(CCCc4cc(Cl)ccc43)COc3ccc(cc32)C(=O)NS1(=O)=O` [Example 100454, (1S,3′R,6′R,7′S,8′E,11′S,12′R)-6-chloro-7′-hydroxy-11′,12′-dimethyl-7′-(4-(2-pyridinyl)-1-butyn-1-yl)-3,4-dihydro-2H,15′H-spiro[naphthalene-1,22′-[20]oxa[13]thia[1,14]diazatetracyclo [14.7.2.0~3,6~.0~19,24~]pentacosa[8,16,18,24]tetraen]-15′-one 13′,13′-dioxide], for which the results for the pIC50 in assay [1] (setting [3]) and in assay [2] (setting [4]) were 6.10 and 9.19, respectively.

Consider `CO[C@]1(C[C@H](O)C(C)C)/C=C/C[C@H](C)[C@@H](C)S(=O)(=O)NC(=O)c2ccc3c(c2)N(C[C@@H]2CC[C@H]21)C[C@@]1(CCCc2cc(Cl)ccc21)CO3` [Example 100359, (1S,3′R,6′R,7′R,8′E,11′S,12′R)-6-chloro-7′-((2S)-2-hydroxy-3-methylbutyl)-7′-methoxy-11′,12′-dimethyl-3,4-dihydro-2H,15′H-spiro[naphthalene-1,22′-[20]oxa[13]thia[1,14]diazatetracyclo [14.7.2.0~3,6~.0~19,24~]pentacosa[8,16,18,24]tetraen]-15′-one 13′,13′-dioxide], for which the figures for the pIC50 in assay [1] (setting [3]) and in assay [2] (setting [4]) were 5.81 and 8.92, respectively.

Take `CO[C@@]1(CN2CCn3ccnc3C2)/C=C/C[C@H](C)[C@@H](C)S(=O)(=O)NC(=O)c2ccc3c(c2)N(C[C@@H]2CC[C@H]21)C[C@@]1(CCCc2cc(Cl)ccc21)CO3` [Example 201, (1S,3′R,6′R,7′S,8′E,11′S,12′R)-6-chloro-7′-(5,6-dihydroimidazo[1,2-a]pyrazin-7(8H)-ylmethyl)-7′-methoxy-11′,12′-dimethyl-3,4-dihydro-2H,15′H-spiro[naphthalene-1,22′-[20]oxa[13]thia[1,14]diazatetracyclo [14.7.2.0~3,6~.0~19,24~]pentacosa[8,16,18,24]tetraen]-15′-one 13′,13′-dioxide]: the pIC50 in assay [1] (setting [6]) is 6.61; in assay [2] (setting [7]), 9.92.

Consider `CO[C@]1(CC(=O)O)/C=C/C[C@H](C)[C@@H](C)S(=O)(=O)NC(=O)c2ccc3c(c2)N(C[C@@H]2CC[C@H]21)C[C@@]1(CCCc2cc(Cl)ccc21)CO3` [Example 100306, ((1S,3′R,6′R,7′R,8′E,11′S,12′R)-6-chloro-7′-methoxy-11′,12′-dimethyl-13′,13′-dioxido-15′-oxo-3,4-dihydro-2H-spiro[naphthalene-1,22′-[20]oxa[13]thia[1,14]diazatetracyclo [14.7.2.0~3,6~.0~19,24~]pentacosa[8,16,18,24]tetraen]-7′-yl)acetic acid], for which the pIC50 in assay [1] (setting [5]) was 6.56; in assay [2] (setting [4]), 9.91.

Take `CO[C@@]1(CCN2CCN3CCOC[C@@H]3C2)/C=C/C[C@H](C)[C@@H](C)S(=O)(=O)NC(=O)c2ccc3c(c2)N(C[C@@H]2CC[C@H]21)C[C@@]1(CCCc2cc(Cl)ccc21)CO3` [Example 100429, (1S,3′R,6′R,7′S,8′E,11′S,12′R)-6-chloro-7′-(2-((9aS)-hexahydropyrazino[2,1-c][1,4]oxazin-8(1H)-yl)ethyl)-7′-methoxy-11′,12′-dimethyl-3,4-dihydro-2H,15′H-spiro[naphthalene-1,22′-[20]oxa[13]thia[1,14]diazatetracyclo [14.7.2.0~3,6~.0~19,24~]pentacosa[8,16,18,24]tetraen]-15′-one 13′,13′-dioxide]: the pIC50 was 5.85 in assay [1] (setting [5]) and 9.75 in assay [2] (setting [4]).

With `CO[C@@]1(CCN2CCOCC2)/C=C/C[C@H](C)[C@@H](C)S(=O)(=O)NC(=O)c2ccc3c(c2)N(C[C@@H]2CC[C@H]21)C[C@@]1(CCCc2cc(Cl)ccc21)CO3` [Example 100419, (1S,3′R,6′R,7′S,8′E,11′S,12′R)-6-chloro-7′-methoxy-11′,12′-dimethyl-7′-(2-(4-morpholinyl)ethyl)-3,4-dihydro-2H,15′H-spiro[naphthalene-1,22′-[20]oxa[13]thia[1,14]diazatetracyclo [14.7.2.0~3,6~.0~19,24~]pentacosa[8,16,18,24]tetraen]-15′-one 13′,13′-dioxide], the pIC50 in assay [1] (setting [5]) was 6.38; in assay [2] (setting [4]) it was 9.56.

Turning to `CO[C@@]1(CN2CCCN(C(C)C)CC2)/C=C/C[C@H](C)[C@@H](C)S(=O)(=O)NC(=O)c2ccc3c(c2)N(C[C@@H]2CC[C@H]21)C[C@@]1(CCCc2cc(Cl)ccc21)CO3` [Example 331], the pIC50 in assay [1] (read-out: OPM-2 10% FBS IC50 IP, OPM-2 cells, 10% FBS, 16 h incubation) was 6.64; in assay [2] (setting [7]) it was 9.74.

As for `C[C@@H]1[C@@H](C)CCC[C@@](O)(COS(C)(=O)=O)[C@@H]2CC[C@H]2CN2C[C@@]3(CCCc4cc(Cl)ccc43)COc3ccc(cc32)C(=O)NS1(=O)=O` [Example 100283, ((1S,3′R,6′R,7′S,11′S,12′R)-6-chloro-7′-hydroxy-11′,12′-dimethyl-13′,13′-dioxido-15′-oxo-3,4-dihydro-2H-spiro[naphthalene-1,22′-[20]oxa[13]thia[1,14]diazatetracyclo [14.7.2.0~3,6~.0~19,24~]pentacosa[16,18,24]trien]-7′-yl)methyl methanesulfonate], the pIC50 in assay [1] (setting [3]) was 6.09; in assay [2], 9.84.

Consider `CCO[C@@]1(CN2CCC(N(C)C)CC2)/C=C/C[C@H](C)[C@@H](C)S(=O)(=O)NC(=O)c2ccc3c(c2)N(C[C@@H]2CC[C@H]21)C[C@@]1(CCCc2cc(Cl)ccc21)CO3` [Example 110, (1S,3′R,6′R,7′S,8′E,11′S,12′R)-6-chloro-7′-((4-(dimethylamino)-1-piperidinyl)methyl)-7′-ethoxy-11′,12′-dimethyl-3,4-dihydro-2H,15′H-spiro[naphthalene-1,22′-[20]oxa[13]thia[1,14]diazatetracyclo [14.7.2.0~3,6~.0~19,24~]pentacosa[8,16,18,24]tetraen]-15′-one 13′,13′-dioxide], for which the pIC50 was 5.76 in assay [1] (setting [6]) and 9.30 in assay [2] (setting [7]).

With `C[C@@H]1[C@@H](C)C/C=C/[C@](O)(c2c[nH]nn2)[C@@H]2CC[C@H]2CN2C[C@@]3(CCCc4cc(Cl)ccc43)COc3ccc(cc32)C(=O)NS1(=O)=O` [Example 100239, (1S,3′R,6′R,7′R,8′E,11′S,12′R)-6-chloro-7′-hydroxy-11′,12′-dimethyl-7′-(1H-1,2,3-triazol-4-yl)-3,4-dihydro-2H,15′H-spiro[naphthalene-1,22′-[20]oxa[13]thia[1,14]diazatetracyclo [14.7.2.0~3,6~.0~19,24~]pentacosa[8,16,18,24]tetraen]-15′-one 13′,13′-dioxide], the pIC50 in assay [1] (setting [5]) is 5.43; in assay [2] (setting [4]), 9.48.

Consider `CO[C@@]1(CN2CCC2)/C=C/C[C@H](C)[C@@H](C)S(=O)(=O)NC(=O)c2ccc3c(c2)N(C[C@@H]2CC[C@H]21)C[C@@]1(CCCc2cc(Cl)ccc21)CO3` [Example 77, (1S,3′R,6′R,7′S,8′E,11′S,12′R)-7′-(1-azetidinylmethyl)-6-chloro-7′-methoxy-11′,12′-dimethyl-3,4-dihydro-2H,15′H-spiro[naphthalene-1,22′-[20]oxa[13]thia[1,14]diazatetracyclo [14.7.2.0~3,6~.0~19,24~]pentacosa[8,16,18,24]tetraen]-15′-one 13′,13′-dioxide], for which the pIC50 in assay [1] (setting [6]) was 6.38; in assay [2] (setting [7]), 8.91.

Source of the values: patent US10821115B2, “Compounds that inhibit Mcl-1 protein” (priority 2017, dated 2020).
